“Also recorded” adds a separate entry of the source.
Legend:
[1] = test system: IL2 release from Jurkat cells; experiment: Effect of compounds on IL-2 secretion in T lymphocytes (Jurkat 6.1, anti-CD3/anti-CD28 stimulated, ELISA); type: cell-based; conditions: for IL-2 production, absolute values: 30 min pre-treatment, DMSO control 320.67 (plate 2), 338.25 (plate 3); for IL-2 production, absolute values / activity at 1 µM / activity at 10 µM: 24 h; for effect on IL2 release, in words: 1 and 10 μM; for activity at 1 µM / activity at 10 µM: Homo sapiens, Jurkat, read-out: IL2 release as percentage of anti-CD3/CD28 stimulated release in presence of DMSO, Mean
Description: The T cell line Jurkat 6.1 (ATCC) was used. Cells were pre-treated for 30 min with 1 μM or 10 μM of the respective compound and then stimulated with plate-bound anti-CD3 (BD Pharmingen) and anti-CD28 (AnCell). DMSO was used as vehicle control. […] After 24 hs the supernatant was collected and IL-2 secretion was measured by ELISA.
Compounds were prepared by dissolution in DMSO to yield final concentrations of 1 and 10 μg/ml

[2] = test system: 5% DSS colitis in BALB/c mice; experiment: Acute murine 5% DSS colitis model, Experiment 1; type: in vivo; conditions: for activity in 5% DSS murine colitis (DAI), in words: 30 mg/kg p.o. daily for 7 days
Source text: The study is widely used as a model for studying the pathogenesis of UC and also for screening new therapeutic interventions for the treatment of UC.
In these studies, an acute colitis model was used, with 5% DSS administered in the drinking water of BALB/c mice. This dosage regime induces severe acute colitis, by days 7-8 mice had overt rectal bleeding and marked weight loss; unless sacrificed beforehand, all mice would have died by days 10-12.
Specific Pathogen-Free BALB/c mice, 6-8 weeks of age, were obtained from a commercial supplier (Harlan UK). Mice were fed irradiated diet and housed in individually ventilated cages (Tecniplast UK) under positive pressure.
DSS (5%) was dissolved in drinking water. Compounds were administered orally at a dose of 10 mg/kg or 30 mg/kg on days 0-7, and mice were culled on day 8 or day 9, depending on the severity of the disease. The mice were checked each day for morbidity and the weight of individual mice was recorded. Induction of colitis was determined upon autopsy, length of colon and histology. Colons were recovered and stored at −20° C. for immunological analysis. All of the compounds and experimental groups are randomly alphabetically labelled. Throughout experiments all data recording was performed in a blind manner. The codes on boxes/groups were not broken until after the data was analysed i.e. boxes labelled A, B, C etc were identified as untreated, DSS-treated, or DSS+compound-treated.
To quantify the extent of colitis, a disease activity index (DAI) was determined based on weight loss, faecal blood and stool consistency. A score was given for each parameter, with the sum of the scores used as the DAI. For each treatment group n=8.
All compounds were prepared for oral gavage (0.1 mL per os (p.o.) per 10 g body weight) as a suspension in 0.5% carboxymethyl cellulose/2% Tween 80, at a dose of 3-30 mg/Kg.

Row | Compound | IL-2 production, absolute values ([1]; compound 1 uM) [pg/mL] | IL-2 production, absolute values ([1]; compound 10 uM) [pg/mL] | other results
1 | O=C(O)c1ccc(C[C@@]2(C3=Cc4ccccc4C3)Cc3ccccc3[C@@H]2O)cc1 [Compound 4, 4-(((1R,2S)-1-hydroxy-2,3-dihydro-1H,1′H-2,2′-biinden-2-yl)methyl)benzoic acid] | 97.21 | 94.21 | activity in 5% DSS murine colitis (DAI), in words [2]: without activity; also recorded: almost devoid of activity
2 | O=C(O)c1ccc(C[C@]2(C3=Cc4ccccc4C3)Cc3ccccc3[C@@H]2O)cc1 (single isomer, unassigned) [Compound 3] | 150.07 | 98.57 | activity in 5% DSS murine colitis (DAI), in words [2]: minimal activity; disease activity index (DAI) ([2]; day 7, 30 mg/kg p.o. daily for 7 days, vehicle 9.0±0.53): 5.3±0.6
3 | CC(C)C[C@H](N)C(=O)O[C@@H]1c2ccccc2C[C@@]1(Cc1ccc(C(=O)N(C)C)cc1)C1=Cc2ccccc2C1 [Compound 45, (1S,2S)-2-[4-(dimethylcarbamoyl)benzyl]-2,3-dihydro-1H,1′H-2,2′-biinden-1-yl L-leucinate] | 56.07 | 14.29 | effect on IL2 release, in words [1]: greatest inhibition of IL2 release; activity at 1 µM [1]: 51.5%; activity at 10 µM [1]: 1.5%
4 | CCCOC(=O)c1ccc(C[C@]2(C3=Cc4ccccc4C3)Cc3ccccc3[C@@H]2O)cc1 [Compound 12, propyl 4-(((1R,2R)-1-hydroxy-2,3-dihydro-1H,1′H-[2,2′-biinden]-2-yl)methyl)benzoate] | 240.22 | 132.44 | –
5 | NC(=O)c1ccc(C[C@@]2(C3=Cc4ccccc4C3)Cc3ccccc3[C@H]2O)cc1 [Compound 20, 4-{[(1′S,2′S)-1′-hydroxy-1′,3′-dihydro-1H,2′H-2,2′-biinden-2′-yl]methyl}benzamide] | 174.11 | 141.78 | –
6 | CC(C)C[C@H](N)C(=O)O[C@H]1c2ccccc2C[C@]1(Cc1ccc(C(=O)O)cc1)C1=Cc2ccccc2C1 [Compound 24, 4-{[(1′R,2′R)-1′-(L-leucyloxy)-1′,3′-dihydro-1H,2′H-2,2′-biinden-2′-yl]methyl}benzoic acid] | 202.13 | 149.63 | –
7 | CN(C)C(=O)c1ccc(C[C@@]2(C3=Cc4ccccc4C3)Cc3ccccc3[C@H]2O)cc1 [Compound 23, 4-{[(1′S,2′S)-1′-hydroxy-1′,3′-dihydro-1H,2′H-2,2′-biinden-2′-yl]methyl}-N,N-dimethylbenzamide] | 191.44 | 193.56 | –
8 | C[C@]12C=CC(=O)C=C1CC[C@@H]1[C@@H]2[C@@H](O)C[C@@]2(C)[C@H]1CC[C@]2(O)C(=O)CO [Prednisolone, reference compound] | – | – | DAI on the day of autopsy versus vehicle controls ([2]; 5 mg/kg): reduced DAI scores; colon cytokine levels (IL1β, TNFα, IL6) ([2]; day 7, Prednisolone 5 mg/kg): reduced (p<0.05); inhibition of colon shortening versus vehicle controls ([2]; day 7, Prednisolone 5 mg/kg): did have a significant effect; reduction of colonic myeloperoxidase (MPO) activity ([2]; day 7, Prednisolone 5 mg/kg): 54%; colon pathology (histology score) relative to vehicle ([2]; prednisolone 5 mg/Kg): no significant improvement
9 | CCOC(=O)c1ccc(C[C@@]2(C3=Cc4ccccc4C3)Cc3ccccc3[C@H]2OC(=O)[C@@H](N)CC(C)C)cc1 [Compound 40, ethyl 4-(((1S,2S)-1-(((S)-2-amino-4-methylpentanoyl)oxy)-2,3-dihydro-1H,1′H-[2,2′-biinden]-2-yl)methyl)benzoate] | 84.86 | 12.71 | activity at 1 µM [1]: 82.6%; activity at 10 µM [1]: 20.9%
10 | CCOC(=O)c1ccc(C[C@]2(C3=Cc4ccccc4C3)Cc3ccccc3[C@@H]2OC(=O)[C@@H](N)CC(C)C)cc1 [Compound 33, ethyl 4-(((1R,2R)-1-(((S)-2-amino-4-methylpentanoyl)oxy)-2,3-dihydro-1H,1′H-[2,2′-biinden]-2-yl)methyl)benzoate] | 186.25 | 74.38 | activity at 1 µM [1]: 89.4%; activity at 10 µM [1]: 43.6%
11 | O=C(Nc1ccc(O)c(C(=O)O)c1)c1ccc(C[C@]2(C3=Cc4ccccc4C3)Cc3ccccc3[C@@H]2O)cc1 [Compound 46, 2-hydroxy-5-(4-(((1R,2R)-1-hydroxy-2,3-dihydro-1H,1′H-[2,2′-biinden]-2-yl)methyl)benzamido)benzoic acid] | 92.21 | 72.07 | –
12 | CC(C)[C@H](N)C(=O)O[C@H]1c2ccccc2C[C@]1(Cc1ccc(C(=O)O)cc1)C1=Cc2ccccc2C1 [Compound 25, 4-{[(1′R,2′R)-1′-(L-valyloxy)-1′,3′-dihydro-1H,2′H-2,2′-biinden-2′-yl]methyl}benzoic acid] | 208.38 | 174.25 | –
13 | O=C(NCCO)c1ccc(C[C@@]2(C3=Cc4ccccc4C3)Cc3ccccc3[C@H]2O)cc1 [Compound 21, 4-{[(1′S,2′S)-1′-hydroxy-1′,3′-dihydro-1H,2′H-2,2′-biinden-2′-yl]methyl}-N-(2-hydroxyethyl)benzamide] | 210.89 | 137.78 | –
14 | CCOC(=O)c1ccc(C[C@@]2(C3=Cc4ccccc4C3)Cc3ccccc3[C@H]2O)cc1 [Compound 18, ethyl 4-(((1S,2S)-1-hydroxy-2,3-dihydro-1H,1′H-[2,2′-biinden]-2-yl)methyl)benzoate] | 190.78 | 79.56 | –
15 | O=C(NCCO)c1ccc(C[C@]2(C3=Cc4ccccc4C3)Cc3ccccc3[C@@H]2O)cc1 [Compound 14, 4-{[(1′R,2′R)-1′-hydroxy-1′,3′-dihydro-1H,2′H-2,2′-biinden-2′-yl]methyl}-N-(2-hydroxyethyl)benzamide] | 214.44 | 146.44 | –
16 | CCCOC(=O)c1ccc(C[C@]2(C3=Cc4ccccc4C3)Cc3ccccc3[C@@H]2OC(=O)[C@@H](N)CC(C)C)cc1 [Compound 34, propyl 4-(((1R,2R)-1-(((S)-2-amino-4-methylpentanoyl)oxy)-2,3-dihydro-1H,1′H-[2,2′-biinden]-2-yl)methyl)benzoate] | 173.25 | 71.38 | activity at 1 µM [1]: 95.8%; activity at 10 µM [1]: 51.5%
17 | CCCOC(=O)c1ccc(C[C@@]2(C3=Cc4ccccc4C3)Cc3ccccc3[C@H]2O)cc1 [Compound 19, propyl 4-(((1S,2S)-1-hydroxy-2,3-dihydro-1H,1′H-[2,2′-biinden]-2-yl)methyl)benzoate] | 174.44 | 81.00 | –
18 | CC[C@H](C)[C@H](N)C(=O)O[C@@H]1c2ccccc2C[C@@]1(Cc1ccc(C(=O)O)cc1)C1=Cc2ccccc2C1 [Compound 30, 4-{[(1′S,2′S)-1′-(L-isoleucyloxy)-1′,3′-dihydro-1H,2′H-2,2′-biinden-2′-yl]methyl}benzoic acid] | 191.63 | 174.50 | –
19 | COC(=O)c1ccc(C[C@@]2(C3=Cc4ccccc4C3)Cc3ccccc3[C@H]2OC(=O)[C@@H](N)CC(C)C)cc1 [Compound 39, methyl 4-(((1S,2S)-1-(((S)-2-amino-4-methylpentanoyl)oxy)-2,3-dihydro-1H,1′H-[2,2′-biinden]-2-yl)methyl)benzoate] | 105.94 | 40.69 | activity at 1 µM [1]: 73.7%; activity at 10 µM [1]: 21.7%
20 | COC(=O)c1ccc(C[C@]2(C3=Cc4ccccc4C3)Cc3ccccc3[C@@H]2O)cc1 [Compound 10, methyl 4-(((1R,2R)-1-hydroxy-2,3-dihydro-1H,1′H-[2,2′-biinden]-2-yl)methyl)benzoate] | 185.56 | – | –
21 | CC(C)C[C@H](N)C(=O)O[C@@H]1c2ccccc2C[C@@]1(Cc1ccc(C(=O)NCCO)cc1)C1=Cc2ccccc2C1 [Compound 43, (1S,2S)-2-{4-[(2-Hydroxyethyl)carbamoyl]benzyl}-2,3-dihydro-1H,1′H-2,2′-biinden-1-yl leucinate] | 97.57 | 12.79 | effect on IL2 release, in words [1]: greatest inhibition of IL2 release; activity at 1 µM [1]: 72.4%; activity at 10 µM [1]: 8.4%
